The values that follow come from PubChem BioAssay (NCI).

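Protocol summary: plate cells (96-well), add compound at 5 concentrations, incubate 48 h, interpolate endpoints linearly. Abbreviation: GI50, concentration required for 50% inhibition of growth. TGI marks complete inhibition of growth.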

For the first assay, the system named is M14 melanoma. In words: inhibition of tumour cell growth, NCI panel, 48 h.
Regarding `COc1ccc(-c2cnoc2-c2cc(OC)c3c(c2)OCCO3)cc1`, the GI50 is 0.0274 µM and the TGI is more than 46.8 µM.
With `COc1ccc(C2Oc3c(c(O)cc4c3[C@H](c3ccc(O)cc3O)[C@H](O)C(c3ccc(O)c(O)c3)O4)C[C@@H]2O)cc1O` (stereo partly drawn), the TGI was more than 100 µM.
As for `CCOC(OC1=C(C#N)CCCC1)C(CC)[Se]c1ccccc1` (stereo not drawn), the TGI was more than 100 µM.
`O=S1CSSC1` returned a TGI of 55.8 µM.
Regarding `CC(=O)[CH-]C(=O)c1ccccc1.CC(=O)[CH-]C(=O)c1ccccc1.CC1(C)OCC(C2OC3OC(C)(C)OC3C2[O-])O1.CC[O-].[Ti+4]` (stereo not drawn), the GI50 was 16.3 µM and the TGI was determined as 36.1 µM.
Compound `COc1c(O)c(OC)c2oc(-c3ccc(O)cc3)c(OC)c(=O)c2c1O` yielded a TGI of more than 100 µM.
On the same count and under the same terms, the result for `Cc1ccccc1/C=C/C(=O)c1ccccc1` reads 29.6 µM; that for `COC(=O)C1C(=O)N(CCc2c[nH]c3ccccc23)C[C@@H]2CCC(=O)C[C@H]12` (stereo partly drawn), more than 100 µM.
Same read-out and setting: under `CC1(C)CC(=O)C(CC2C(=O)c3ccccc3C2=O)C(=O)C1` stands more than 100 µM; under `Cc1ccc(C)c(N2C(=O)C(=O)C(c3nc4ccccc4s3)C(=Nc3cccc4c(=O)[nH][nH]c(=O)c34)C2=O)c1` (stereo not drawn), more than 100 µM.
Consider `O=C1c2ccccc2-c2c1c1ccccc1c(=O)n2CCNCCn1c2c(c3ccccc3c1=O)C(=O)c1ccccc1-2`, for which the GI50 is more than 25 µM and the TGI was more than 25 µM.
In the case of `Cc1cccc(C)c1N1C(=O)C(=O)C(c2nc3ccccc3s2)C(=Nc2cccc3c(=O)[nH][nH]c(=O)c23)C1=O` (stereo not drawn), the TGI is more than 100 µM.
Still for that read-out and setting: under `Cn1c(=O)nc2n(-c3ccc(Cl)c(C(F)(F)F)c3)c3ccccc3nc-2c1=O` stands more than 91.3 µM.

Another assay deals with NCI-H23 lung. Put plainly: inhibition of tumour cell growth, NCI panel, 48 h.
As to `O=C(/C=C/c1cccc(O)c1)c1cccc(-n2cc(-c3ccc4ccccc4c3)[nH]c2=O)c1`, the GI50 is 1.52 µM and the TGI amounted to 3.58 µM.
Take `C=CC1=C(C)C2=NC1=CC1=NC(=CC3=C(C)C4=C(O)[C@H](C(=O)OC)C(=C5NC(=C2)[C@@H](C)[C@@H]5CCC(=O)O)C4=N3)C(CC)=C1C`: the TGI was determined as 9.12 µM.
For the compound `COc1ccc(Nc2nccc(N3CCN(c4c5ccc(Cl)cc5nc5ccc(OC)cc45)CC3)n2)cc1`, the GI50 was 22.7 µM and the TGI was more than 100 µM.
For `COc1ccc(-c2cnoc2-c2cc(OC)c3c(c2)OCCO3)cc1`, in that order: 0.0599 µM and more than 100 µM.
For `COc1ccc(C2Oc3c(c(O)cc4c3[C@H](c3ccc(O)cc3O)[C@H](O)C(c3ccc(O)c(O)c3)O4)C[C@@H]2O)cc1O` (stereo partly drawn), the TGI was more than 100 µM.
In the case of `CCOC(OC1=C(C#N)CCCC1)C(CC)[Se]c1ccccc1` (stereo not drawn), the TGI is 31.5 µM.
For the compound `O=S1CSSC1`, the TGI amounted to 76.7 µM.
Consider `CC(=O)[CH-]C(=O)c1ccccc1.CC(=O)[CH-]C(=O)c1ccccc1.CC1(C)OCC(C2OC3OC(C)(C)OC3C2[O-])O1.CC[O-].[Ti+4]` (stereo not drawn), for which the GI50 is 15.8 µM and the TGI is 30 µM.
For `COc1c(O)c(OC)c2oc(-c3ccc(O)cc3)c(OC)c(=O)c2c1O`, the TGI was more than 100 µM.
The same measure, in the same setting: under `Cc1ccccc1/C=C/C(=O)c1ccccc1` stands 32.2 µM; under `COC(=O)C1C(=O)N(CCc2c[nH]c3ccccc23)C[C@@H]2CCC(=O)C[C@H]12` (stereo partly drawn), more than 100 µM.
Still for that read-out and setting: the result for `CC1(C)CC(=O)C(CC2C(=O)c3ccccc3C2=O)C(=O)C1` reads more than 100 µM; that for `Cc1ccc(C)c(N2C(=O)C(=O)C(c3nc4ccccc4s3)C(=Nc3cccc4c(=O)[nH][nH]c(=O)c34)C2=O)c1` (stereo not drawn), more than 100 µM.
For the compound `O=C1c2ccccc2-c2c1c1ccccc1c(=O)n2CCNCCn1c2c(c3ccccc3c1=O)C(=O)c1ccccc1-2`, the GI50 is more than 25 µM and the TGI was more than 25 µM.
Turning to `Cc1cccc(C)c1N1C(=O)C(=O)C(c2nc3ccccc3s2)C(=Nc2cccc3c(=O)[nH][nH]c(=O)c23)C1=O` (stereo not drawn), the TGI was more than 100 µM.
In the case of `Cn1c(=O)nc2n(-c3ccc(Cl)c(C(F)(F)F)c3)c3ccccc3nc-2c1=O`, the TGI was more than 83.2 µM.

A further assay concerns OVCAR-4 ovarian. In words: inhibition of tumour cell growth, NCI panel, 48 h.
Compound `C=CC1=C(C)C2=NC1=CC1=NC(=CC3=C(C)C4=C(O)[C@H](C(=O)OC)C(=C5NC(=C2)[C@@H](C)[C@@H]5CCC(=O)O)C4=N3)C(CC)=C1C` had a TGI of 22 µM.
`COc1ccc(Nc2nccc(N3CCN(c4c5ccc(Cl)cc5nc5ccc(OC)cc45)CC3)n2)cc1`: the GI50 was 18.2 µM and the TGI was more than 100 µM.
For `COc1ccc(-c2cnoc2-c2cc(OC)c3c(c2)OCCO3)cc1`, in that order: 14 µM and more than 100 µM.
Compound `COc1ccc(C2Oc3c(c(O)cc4c3[C@H](c3ccc(O)cc3O)[C@H](O)C(c3ccc(O)c(O)c3)O4)C[C@@H]2O)cc1O` (stereo partly drawn) registered a TGI of more than 100 µM.
`CCOC(OC1=C(C#N)CCCC1)C(CC)[Se]c1ccccc1` (stereo not drawn): the TGI was 43.2 µM.
Still for that read-out and setting: under `O=S1CSSC1` stands 33.9 µM.
For the compound `CC(=O)[CH-]C(=O)c1ccccc1.CC(=O)[CH-]C(=O)c1ccccc1.CC1(C)OCC(C2OC3OC(C)(C)OC3C2[O-])O1.CC[O-].[Ti+4]` (stereo not drawn), the GI50 was 14.2 µM and the TGI was found to be 32.2 µM.
On to `Cc1ccccc1/C=C/C(=O)c1ccccc1`, for which the TGI was 33.2 µM.
`COC(=O)C1C(=O)N(CCc2c[nH]c3ccccc23)C[C@@H]2CCC(=O)C[C@H]12` (stereo partly drawn) came in with a TGI of more than 100 µM.
As to `CC1(C)CC(=O)C(CC2C(=O)c3ccccc3C2=O)C(=O)C1`, the TGI was more than 100 µM.
The compound `Cc1ccc(C)c(N2C(=O)C(=O)C(c3nc4ccccc4s3)C(=Nc3cccc4c(=O)[nH][nH]c(=O)c34)C2=O)c1` (stereo not drawn) showed a TGI of more than 100 µM.
Turning to `Cc1cccc(C)c1N1C(=O)C(=O)C(c2nc3ccccc3s2)C(=Nc2cccc3c(=O)[nH][nH]c(=O)c23)C1=O` (stereo not drawn), the TGI was more than 100 µM.
With `Cn1c(=O)nc2n(-c3ccc(Cl)c(C(F)(F)F)c3)c3ccccc3nc-2c1=O`, the TGI turned out to be 62.9 µM.

In another assay the test system is SK-MEL-2 melanoma. In words: inhibition of tumour cell growth, NCI panel, 48 h.
In the case of `O=C(/C=C/c1cccc(O)c1)c1cccc(-n2cc(-c3ccc4ccccc4c3)[nH]c2=O)c1`, the GI50 was 2.31 µM and the TGI amounted to 7.97 µM.
`C=CC1=C(C)C2=NC1=CC1=NC(=CC3=C(C)C4=C(O)[C@H](C(=O)OC)C(=C5NC(=C2)[C@@H](C)[C@@H]5CCC(=O)O)C4=N3)C(CC)=C1C` showed a TGI of more than 22.2 µM.
As for `COc1ccc(-c2cnoc2-c2cc(OC)c3c(c2)OCCO3)cc1`, the GI50 was 0.0279 µM and the TGI is 16.2 µM.
`COc1ccc(C2Oc3c(c(O)cc4c3[C@H](c3ccc(O)cc3O)[C@H](O)C(c3ccc(O)c(O)c3)O4)C[C@@H]2O)cc1O` (stereo partly drawn) gave a TGI of more than 100 µM.
Consider `CCOC(OC1=C(C#N)CCCC1)C(CC)[Se]c1ccccc1` (stereo not drawn), for which the TGI is 80.8 µM.
Still for that read-out and setting: the result for `O=S1CSSC1` reads 33.9 µM.
For the compound `CC(=O)[CH-]C(=O)c1ccccc1.CC(=O)[CH-]C(=O)c1ccccc1.CC1(C)OCC(C2OC3OC(C)(C)OC3C2[O-])O1.CC[O-].[Ti+4]` (stereo not drawn), the GI50 is 12 µM and the TGI turned out to be 27.8 µM.
With `COc1c(O)c(OC)c2oc(-c3ccc(O)cc3)c(OC)c(=O)c2c1O`, the TGI is more than 100 µM.
Turning to `Cc1ccccc1/C=C/C(=O)c1ccccc1`, the TGI was more than 10 µM.
Compound `COC(=O)C1C(=O)N(CCc2c[nH]c3ccccc23)C[C@@H]2CCC(=O)C[C@H]12` (stereo partly drawn) gave a TGI of more than 100 µM.
`CC1(C)CC(=O)C(CC2C(=O)c3ccccc3C2=O)C(=O)C1` displayed a TGI of more than 100 µM.
Turning to `Cc1ccc(C)c(N2C(=O)C(=O)C(c3nc4ccccc4s3)C(=Nc3cccc4c(=O)[nH][nH]c(=O)c34)C2=O)c1` (stereo not drawn), the TGI is more than 100 µM.
As to `O=C1c2ccccc2-c2c1c1ccccc1c(=O)n2CCNCCn1c2c(c3ccccc3c1=O)C(=O)c1ccccc1-2`, the GI50 was more than 25 µM and the TGI was more than 25 µM.
For `Cc1cccc(C)c1N1C(=O)C(=O)C(c2nc3ccccc3s2)C(=Nc2cccc3c(=O)[nH][nH]c(=O)c23)C1=O` (stereo not drawn), the TGI was more than 100 µM.
`Cn1c(=O)nc2n(-c3ccc(Cl)c(C(F)(F)F)c3)c3ccccc3nc-2c1=O` displayed a TGI of more than 100 µM.

The subject of another assay is SN12C renal. In words: inhibition of tumour cell growth, NCI panel, 48 h.
`O=C(/C=C/c1cccc(O)c1)c1cccc(-n2cc(-c3ccc4ccccc4c3)[nH]c2=O)c1`: the GI50 was 1.44 µM and the TGI worked out at 3.56 µM.
`C=CC1=C(C)C2=NC1=CC1=NC(=CC3=C(C)C4=C(O)[C@H](C(=O)OC)C(=C5NC(=C2)[C@@H](C)[C@@H]5CCC(=O)O)C4=N3)C(CC)=C1C` yielded a TGI of more than 100 µM.
As to `COc1ccc(Nc2nccc(N3CCN(c4c5ccc(Cl)cc5nc5ccc(OC)cc45)CC3)n2)cc1`, the GI50 is 6.06 µM and the TGI is more than 100 µM.
Consider `COc1ccc(-c2cnoc2-c2cc(OC)c3c(c2)OCCO3)cc1`, for which the GI50 is 0.402 µM and the TGI is more than 94.3 µM.
`COc1ccc(C2Oc3c(c(O)cc4c3[C@H](c3ccc(O)cc3O)[C@H](O)C(c3ccc(O)c(O)c3)O4)C[C@@H]2O)cc1O` (stereo partly drawn): the TGI is more than 100 µM.
The same measure, in the same setting: the result for `CCOC(OC1=C(C#N)CCCC1)C(CC)[Se]c1ccccc1` (stereo not drawn) reads 36.9 µM.
Same read-out and setting: under `O=S1CSSC1` stands 24.4 µM.
Turning to `CC(=O)[CH-]C(=O)c1ccccc1.CC(=O)[CH-]C(=O)c1ccccc1.CC1(C)OCC(C2OC3OC(C)(C)OC3C2[O-])O1.CC[O-].[Ti+4]` (stereo not drawn), the GI50 was 15.6 µM and the TGI is 33.1 µM.
Turning to `COc1c(O)c(OC)c2oc(-c3ccc(O)cc3)c(OC)c(=O)c2c1O`, the TGI is more than 100 µM.
The same measure, in the same setting: the result for `Cc1ccccc1/C=C/C(=O)c1ccccc1` reads more than 10 µM; that for `COC(=O)C1C(=O)N(CCc2c[nH]c3ccccc23)C[C@@H]2CCC(=O)C[C@H]12` (stereo partly drawn), more than 100 µM.
The compound `CC1(C)CC(=O)C(CC2C(=O)c3ccccc3C2=O)C(=O)C1` showed a TGI of more than 100 µM.
The same measure, in the same setting: the result for `Cc1ccc(C)c(N2C(=O)C(=O)C(c3nc4ccccc4s3)C(=Nc3cccc4c(=O)[nH][nH]c(=O)c34)C2=O)c1` (stereo not drawn) reads more than 100 µM.
In the case of `O=C1c2ccccc2-c2c1c1ccccc1c(=O)n2CCNCCn1c2c(c3ccccc3c1=O)C(=O)c1ccccc1-2`, the GI50 was more than 25 µM and the TGI is more than 25 µM.
The compound `Cc1cccc(C)c1N1C(=O)C(=O)C(c2nc3ccccc3s2)C(=Nc2cccc3c(=O)[nH][nH]c(=O)c23)C1=O` (stereo not drawn) came in with a TGI of more than 100 µM.
Same read-out and setting: the result for `Cn1c(=O)nc2n(-c3ccc(Cl)c(C(F)(F)F)c3)c3ccccc3nc-2c1=O` reads more than 100 µM.
